Reference: patent publication US20250002463A1, “NEW SALT FORMS OF AMILORIDE AND ITS DERIVATIVES FOR PHARMACEUTICAL USE” (PSOMRI Holding AB, priority 2021, published 2025)

Legend:
[1] = Physical stability under Accelerated Aging Conditions (AAC, 40° C./75% RH, 2 days), HT-XRPD; conditions: for Physical Stability: AAC 40° C./75% RH, 2 days, re-analyzed by HT-XRPD; for physical stability upon exposure to AAC: Example 2; for physical stability upon exposure to AAC / Physically stable after AAC: 40° C./75% RH for 2 days; for Physically stable after AAC: Example 1
Protocol: The solids were separated from the liquid phases by centrifugation, dried overnight under vacuum at 50° C. and analyzed by HT-XRPD. Solvents from the remaining mother liquors and solutions were evaporated under ambient conditions (evaporative crystallization experiments) and the residual solids were analyzed by HT-XRPD.
Slurries of the amorphous solids (GEN9 and GEN16, respectively) were prepared in 15 solvents at room temperature. The suspensions were subjected to a temperature profile, which comprised of three heating and cooling cycles. At the end of the temperature profile, the solids were isolated by centrifugation and dried at ambient conditions and under vacuum at 50° C. Upon completion of all crystallization experiments, all solids were analyzed by HT-XRPD.

[2] = Crystallinity of salt forms by HT-XRPD; assay type: physicochemical; conditions: salt screen solid forms
Protocol: The precipitated solids were analyzed by high throughput X-ray powder diffractometry (HT XRPD). Liquid phases (both solutions and mother liquors) were evaporated at ambient conditions and the residual solids were analyzed by HT XRPD.
XRPD patterns were obtained using the Ardena T2 high-throughput XRPD set-up. The plates were mounted on a Bruker General Area Detector Diffraction System (GADDS) equipped with a VÅNTEC-500 gas area detector corrected for intensity and geometric variations. The calibration of the measurement accuracy (peaks position) was performed using NIST SRM1976 standard (Corundum).
No background subtraction or curve smoothing was applied to the XRPD patterns.

| SMILES | Physical Stability [1] | Crystallinity [2] | physical stability upon exposure to AAC [1] | Physically stable after AAC [1] |
| --- | --- | --- | --- | --- |
| NC(=NC(=O)c1nc(Cl)c(N)nc1N)NCc1ccccc1.O=C(O)CCCCC(=O)O [ADI1] | Unstable | Good | – | – |
| NC(=NC(=O)c1nc(Cl)c(N)nc1N)NCc1ccccc1.O=S(=O)(O)c1ccccc1 [BES1] | Unstable | Good | – | – |
| N=C(NCc1ccccc1)NC(=O)c1nc(Cl)c(N)nc1N.O=S(=O)(O)c1ccccc1 [BES2] | Unstable | Good | – | – |
| CCCC(=O)O.NC(=NC(=O)c1nc(Cl)c(N)nc1N)NCc1ccccc1 [BUT2] | Unstable | Poor | – | – |
| NC(=NC(=O)c1nc(Cl)c(N)nc1N)NCc1ccccc1.O=C(O)C=Cc1ccccc1 [CIN1] | Stable | Moderate | physically stable | – |
| NC(=NC(=O)c1nc(Cl)c(N)nc1N)NCc1ccccc1.O=C(O)C=Cc1ccccc1 [CIN2] | Stable | Good | physically stable | – |
| NC(=NC(=O)c1nc(Cl)c(N)nc1N)NCc1ccccc1.O=C(O)CC(O)(CC(=O)O)C(=O)O [CIT1] | Unstable | Moderate/Poor | – | – |
| NC(=NC(=O)c1nc(Cl)c(N)nc1N)NCc1ccccc1.O=C(O)CC(O)(CC(=O)O)C(=O)O [CIT2] | – | Good | – | – |
| Cl.Cl.N=C(NCc1ccccc1)NC(=O)c1nc(Cl)c(N)nc1N [Di-HCl1] | – | – | – | physically unstable |
| NC(=NC(=O)c1nc(Cl)c(N)nc1N)NCc1ccccc1.O=S(=O)(O)CCS(=O)(=O)O [EDY1] | Unstable | Good | – | – |
| NC(=NC(=O)c1nc(Cl)c(N)nc1N)NCc1ccccc1.O=S(=O)(O)CCS(=O)(=O)O [EDY2] | Stable | Good | physically stable | – |
| NC(=NC(=O)c1nc(Cl)c(N)nc1N)NCc1ccccc1.O=S(=O)(O)CCS(=O)(=O)O [EDY3] | Stable | Good | physically stable | – |
| NC(=NC(=O)c1nc(Cl)c(N)nc1N)NCc1ccccc1.NC(=NC(=O)c1nc(Cl)c(N)nc1N)NCc1ccccc1.O=S(=O)(O)CCS(=O)(=O)O [EDY4] | Unstable | Good | – | – |
| NC(=NC(=O)c1nc(Cl)c(N)nc1N)NCc1ccccc1.O=S(=O)(O)CCS(=O)(=O)O [EDY5] | – | Moderate | – | – |
| CCS(=O)(=O)O.NC(=NC(=O)c1nc(Cl)c(N)nc1N)NCc1ccccc1 [ESY1] | Stable | Good | physically stable | – |
| CCS(=O)(=O)O.NC(=NC(=O)c1nc(Cl)c(N)nc1N)NCc1ccccc1 [ESY3] | Unstable | Poor | – | – |
| CCS(=O)(=O)O.NC(=NC(=O)c1nc(Cl)c(N)nc1N)NCc1ccccc1 [ESY4] | – | Moderate | – | – |
| N=C(NCc1ccccc1)NC(=O)c1nc(Cl)c(N)nc1N.O=CO [FOR1] | – | Good | – | – |
| NC(=NC(=O)c1nc(Cl)c(N)nc1N)NCc1ccccc1.O=CO [FOR2] | Unstable | Moderate/Poor | – | – |
| NC(=NC(=O)c1nc(Cl)c(N)nc1N)NCc1ccccc1.O=CO [FOR4] | – | Good | – | – |

| SMILES | Physical Stability [1] | Crystallinity [2] | physical stability upon exposure to AAC [1] | Physically stable after AAC [1] |
| --- | --- | --- | --- | --- |
| NC(=NC(=O)c1nc(Cl)c(N)nc1N)NCc1ccccc1.O=CO [FOR5] | – | Good | – | – |
| NC(=NCc1ccccc1)NC(=O)c1nc(Cl)c(N)nc1N.O=C(O)C=CC(=O)O [FUM1] | Unstable | Good | – | – |
| N=C(NCc1ccccc1)NC(=O)c1nc(Cl)c(N)nc1N.O=C(O)C=CC(=O)O [FUM2] | Stable | Good | physically stable | – |
| NC(=NC(=O)c1nc(Cl)c(N)nc1N)NCc1ccccc1.O=C(O)c1ccco1 [FUR1] | Stable | Good | physically stable | – |
| NC(=NC(=O)c1nc(Cl)c(N)nc1N)NCc1ccccc1.O=C(O)c1ccco1 [FUR2] | – | Good | – | – |
| NC(=NC(=O)c1nc(Cl)c(N)nc1N)NCc1ccccc1.O=C(O)c1ccco1 [FUR3] | Unstable | Good | – | – |
| NC(=NC(=O)c1nc(Cl)c(N)nc1N)NCc1ccccc1.O=C(O)c1cc(O)ccc1O [GEN1] | Stable | Moderate | physically stable | – |
| N=C(NCc1ccccc1)NC(=O)c1nc(Cl)c(N)nc1N.O=C(O)c1cc(O)ccc1O [GEN2] | Stable | Moderate | physically stable | – |
| NC(=NC(=O)c1nc(Cl)c(N)nc1N)NCc1ccccc1.O=C(O)c1cc(O)ccc1O [GEN3] | Unstable | Moderate | – | – |
| Br.Br.NC(=NC(=O)c1nc(Cl)c(N)nc1N)NCc1ccccc1 [HBR3] | Unstable | Moderate | – | – |
| Br.NC(=NC(=O)c1nc(Cl)c(N)nc1N)NCc1ccccc1 [HBR6] | – | Good | – | – |
| Br.N=C(NCc1ccccc1)NC(=O)c1nc(Cl)c(N)nc1N [HBR7] | – | Good | – | – |
| Br.N=C(NCc1ccccc1)NC(=O)c1nc(Cl)c(N)nc1N [HBR8] | – | Good | – | – |
| Br.NC(=NC(=O)c1nc(Cl)c(N)nc1N)NCc1ccccc1 [HBR10] | Unstable | Moderate | – | – |
| NC(=NC(=O)c1nc(Cl)c(N)nc1N)NCc1ccccc1.O=C(O)CNC(=O)c1ccccc1 [HIP1] | Unstable | Good | – | – |
| NC(=NC(=O)c1nc(Cl)c(N)nc1N)NCc1ccccc1.O=C(O)CNC(=O)c1ccccc1 [HIP2] | – | Poor | – | – |
| NC(=NC(=O)c1nc(Cl)c(N)nc1N)NCc1ccccc1.O=C(O)C=CC(=O)O [MAE2] | Stable | Good | physically stable | – |
| NC(=NC(=O)c1nc(Cl)c(N)nc1N)NCc1ccccc1.O=C(O)C=CC(=O)O [MAE3] | Stable | Moderate | physically stable | – |
| NC(=NC(=O)c1nc(Cl)c(N)nc1N)NCc1ccccc1.O=C(O)C[C@H](O)C(=O)O [MAL1] | Stable | Good | physically stable | – |
| N=C(NCc1ccccc1)NC(=O)c1nc(Cl)c(N)nc1N.O=C(O)CC(=O)O [MAO4] | – | Good | – | – |

| SMILES | Physical Stability [1] | Crystallinity [2] | physical stability upon exposure to AAC [1] | Physically stable after AAC [1] |
| --- | --- | --- | --- | --- |
| CS(=O)(=O)O.NC(=NC(=O)c1nc(Cl)c(N)nc1N)NCc1ccccc1 [MES3] | – | Moderate | – | – |
| N=C(NCc1ccccc1)NC(=O)c1nc(Cl)c(N)nc1N.O=[N+]([O-])O [NIT1] | – | – | – | physically unstable |
| NC(=NCc1ccccc1)NC(=O)c1nc(Cl)c(N)nc1N.O=[N+]([O-])O [NIT2] | – | – | – | physically unstable |
| NC(=NC(=O)c1nc(Cl)c(N)nc1N)NCc1ccccc1.O=[N+]([O-])O [NIT4] | – | – | – | physically unstable |
| N=C(NCc1ccccc1)NC(=O)c1nc(Cl)c(N)nc1N.O=S(=O)(O)c1ccc2ccccc2c1 [NSA1] | Unstable | Good | – | – |
| NC(=NC(=O)c1nc(Cl)c(N)nc1N)NCc1ccccc1.O=S(=O)(O)c1ccc2ccccc2c1 [NSA2] | Stable | Moderate | physically stable | – |
| NC(=NCc1ccccc1)NC(=O)c1nc(Cl)c(N)nc1N.O=S(=O)(O)c1ccc2ccccc2c1 [NSA4] | Stable | Poor | physically stable | – |
| N=C(NCc1ccccc1)NC(=O)c1nc(Cl)c(N)nc1N.O=C(O)c1cc(=O)[nH]c(=O)[nH]1 [ORO1] | Stable | Good | physically stable | – |
| NC(=NCc1ccccc1)NC(=O)c1nc(Cl)c(N)nc1N.O=C(O)c1cc(=O)[nH]c(=O)[nH]1 [ORO2] | Stable | Good - poorly | physically stable | – |
| NC(=NC(=O)c1nc(Cl)c(N)nc1N)NCc1ccccc1.O=C(O)c1cc(=O)[nH]c(=O)[nH]1 [ORO3] | Poor- | Poor | – | – |
| NC(=NC(=O)c1nc(Cl)c(N)nc1N)NCc1ccccc1.O=C(O)c1cc2ccccc2c(Cc2c(O)c(C(=O)O)cc3ccccc23)c1O [PAM4] | – | Poor | – | – |
| N=C(NCc1ccccc1)NC(=O)c1nc(Cl)c(N)nc1N.O=P(O)(O)O [PHO1] | – | – | – | physically unstable |
| CCC(=O)O.NC(=NC(=O)c1nc(Cl)c(N)nc1N)NCc1ccccc1 [PRO5] | – | Moderate | – | – |
| NC(=NC(=O)c1nc(Cl)c(N)nc1N)NCc1ccccc1.O=C(O)c1ccccc1O [SAL2] | – | Poor | – | – |
| NC(=NC(=O)c1nc(Cl)c(N)nc1N)NCc1ccccc1.O=S(=O)(O)O [SUL2] | – | – | – | physically unstable |
| Cc1ccc(S(=O)(=O)O)cc1.N=C(NCc1ccccc1)NC(=O)c1nc(Cl)c(N)nc1N [TOS2a] | – | – | – | physically unstable |
| Cc1ccc(S(=O)(=O)O)cc1.N=C(NCc1ccccc1)NC(=O)c1nc(Cl)c(N)nc1N [TOS3] | – | – | – | physically stable |
| CCCCC(=O)O.NC(=NC(=O)c1nc(Cl)c(N)nc1N)NCc1ccccc1 [VAL2] | – | Poor | – | – |
